# Reference: PMC10254306, “Piplartine-Inspired 3,4,5-Trimethoxycinnamates: Trypanocidal, Mechanism of Action, and In Silico Evaluation” (Molecules, 2023)
# Where “and” joins values, the source holds several entries; their conditions need not be identical. Equal values may be shown once. Read-outs that look alike come from different tables or passages of the source.
# Legend:
# [1] = system: epimastigote forms of T. cruzi, Y strain; assay: Trypanocidal activity on epimastigote forms (growth inhibition, Neubauer chamber count); type: cell-based, Trypanosoma cruzi; conditions: for IC50: Trypanosoma cruzi; for Selectivity Index (SI) Epimastigote: ratio CC50 (LLC-MK2) / IC50 epimastigote
# Procedure: (§1) Initially, the prepared esters were submitted to in vitro tests using the microdilution technique in 96-well plates to evaluate the trypanocidal activity against the epimastigote evolutionary form at different concentrations (200–3.12 μg/mL). Then, the compounds with the best activity were tested against the trypomastigote form of T. cruzi. In both assays, IC50 values were calculated; a compound is considered to have trypanocidal activity when IC50 <40 μM [21]. The results are expressed in Table 1.
# Initially, epimastigotes were cultured and distributed in 96-well plates at a density of 10^6 cells/mL in liver infusion tryptose medium supplemented with 10% fetal bovine serum (FBS) and 1% antibiotic. Then, the cells were treated with piplartine analogues at different concentrations and incubated at 28 °C for 24 h. To quantify the growth inhibition of the parasites, a Neubauer chamber was used, and the IC50 was defined.
# [2] = In vitro cytotoxicity, MTT assay; type: cell-based, Rhesus monkey; conditions: Rhesus monkey, MTT, 24 h, read-out: LLCK-MK2 CC50
# Procedure: The compounds were considered selective for the parasite when SI ≥ 10 [21]. The results are expressed in Table 2.
# For the cytotoxicity analysis, the (3-[4,5-dimethylthiazol-2-yl]-2,5 diphenyl tetrazolium bromide) (MTT) assay was used, in which the LLC-MK2 cells were cultured in Dulbecco’s Modified Eagle Medium (DMEM), then exposed to the piplartine analogues at different concentrations (25–200 μg/mL) and incubated for 24 h at 37 °C. Then MTT was added, and the cells were incubated for 4 h, after which 10% sodium dodecyl sulfate was added. […] To calculate the relative cell viability, cells treated only with sterile phosphate-buffered saline were used as a negative control. The experiments were conducted in triplicates.
# [3] = system: epimastigote form of T. cruzi; parameters: method as in PMID 31775321; conditions: cited from earlier work
# [4] = system: trypomastigote forms of T. cruzi, Y strain; assay: Trypanocidal activity on trypomastigote forms (viability by counting); type: cell-based, Trypanosoma cruzi; conditions: for IC50: Trypanosoma cruzi, Y strain, 24 h; for Selectivity Index (SI) Trypomastigote: ratio CC50 (LLC-MK2) / IC50 trypomastigote
# Procedure: as §1
# Trypomastigote forms were obtained by infecting LLC-MK2 cells with the parasite; in this way, the cells were incubated for 24 h in T-25/75 cm^2 flasks at 37 °C in an atmosphere with 5% CO2 in DMEM medium supplemented with 2% FBS and 1% antibiotic. Subsequently, the trypomastigote forms were distributed in 96-well plates treated with piplartine analogues at different concentrations (200; 100; 50; 25; 12.5; 6.25; 3.12 μg/mL) and incubated at 37 °C for 24 h. The assessment of cell viability was performed by counting, and the IC50 was defined.
# [5] = system: epimastigote forms of T. cruzi; parameters: method as in doi:10.1007/s00044-008-9161-9; conditions: read-out: IC50 growth of epimastigote forms; cited from earlier work
# [6] = parameters: method as in PMID 25922266; conditions: rat plasma; cited from earlier work
# [7] = system: amastigote form of the parasite; parameters: method as in PMID 25880257; conditions: cited from earlier work
Compound,"IC50 ([1]; Y strain, 24 h)",Selectivity Index (SI) Epimastigote [1],CC50 at 24 h [2],CC50 at 24 h ([2]; LLC-MK2 renal epithelial cells),further results
CCCCCOC(=O)/C=C/c1cc(OC)c(OC)c(OC)c1 [Compound 5],20.2 µg/mL and 65.5 µM,>9.9,> 200 µg/mL and > 649 µM,–,–
COC(=O)/C=C/c1ccc(O)cc1 [methyl p-coumarate],–,–,–,–,IC50 [3]: 601 µM
CCCOC(=O)/C=C/c1cc(OC)c(OC)c(OC)c1 [Compound 3],90.1 µg/mL and 321 µM,1.6,148 µg/mL and 526 µM,–,–
COc1cccc(COC(=O)/C=C/c2cc(OC)c(OC)c(OC)c2)c1 [Compound 8],40.3 µg/mL and 112 µM,2.5,–,100 µg/mL and 280 µM,IC50 [4]: 64.4 µg/mL and 180 µM; Selectivity Index (SI) Trypomastigote [4]: 1.6
COc1cc(/C=C/C(=O)OCc2ccc(C)cc2)cc(OC)c1OC [Compound 9],61.8 µg/mL and 180 µM,3.0,–,183 µg/mL and 534 µM,IC50 [4]: 39.9 µg/mL and 123 µM; Selectivity Index (SI) Trypomastigote [4]: 4.6
COc1cc(/C=C/C(=O)OC(C)C)cc(OC)c1OC [Compound 4],74.5 µg/mL and 266 µM,>2.7,> 200 µg/mL and > 714 µM,–,–
"COC(=O)/C=C/c1cc(OC)c(OC)c(OC)c1 [Compound 1, (E)-Methyl 3-(3,4,5-trimethoxyphenyl)acrylate]",31.5 µg/mL and 125 µM,4.01,126 µg/mL and 501 µM,–,–
C=C(C)[C@@H]1CC=C(COC(=O)/C=C/c2cc(OC)c(OC)c(OC)c2)CC1 [Compound 12],70.1 µg/mL and 188 µM,1.5,–,106 µg/mL and 284 µM,IC50 [4]: 38.7 µg/mL and 104 µM; Selectivity Index (SI) Trypomastigote [4]: 2.7
"O=C(Cn1ccnc1[N+](=O)[O-])NCc1ccccc1 [Benznidazole, reference compound]",23 µg/mL and 115 µM,–,–,–,IC50 [4]: 32.3 µg/mL and 161 µM; IC50 [5]: 42.7 µM
CCOC(=O)/C=C/c1cc(OC)c(OC)c(OC)c1 [Compound 2],85.7 µg/mL and 322 µM,>2.3,> 200 µg/mL and > 751 µM,–,–
COc1cc(C=CC(=O)OC2CC3CCC2(C)C3(C)C)cc(OC)c1OC (stereo not shown) [Compound 13],155 µg/mL and 414 µM,0.5,–,71.2 µg/mL and 190 µM,–
CCCCCCCCCCOC(=O)/C=C/c1cc(OC)c(OC)c(OC)c1 [Compound 6],–,–,> 200 µg/mL and > 528 µM,–,"trypanocidal activity against epimastigote form (in words) ([1]; Y strain): suppressed the trypanocidal activity; Epimastigote IC50 ([1]; Y strain, 24 h): n*"
COc1ccc(COC(=O)/C=C/c2cc(OC)c(OC)c(OC)c2)cc1 [Compound 7],56.4 µg/mL and 157 µM,3.5,–,196 µg/mL and 547 µM,–
"COc1cc(C=CC(=O)O)cc(OC)c1OC [3,4,5-trimethoxycinnamic acid]",–,–,–,–,bioavailability [6]: high bioavailability; oral absorption [6]: rapid oral absorption
COc1cc(/C=C/C(=O)OCc2ccccc2)cc(OC)c1OC [Compound 10],40 µg/mL and 122 µM,4.6,–,183 µg/mL and 557 µM,IC50 [4]: 13.4 µg/mL and 40.8 µM; Selectivity Index (SI) Trypomastigote [4]: 13.7
CCOC(=O)/C=C/c1ccc(O)c(O)c1 [ethyl caffeate],–,–,–,–,IC50 [7]: 18.3 µM
COc1cc(/C=C/C(=O)N2CCC=CC2=O)cc(OC)c1OC [piplartine],–,–,–,–,IC50 [5]: 21 µM
